Test results published in patent US20100179225A1, “POI Prevention” (CYTOKINE PHARMASCIENCES, INC., priority 2008, published 2010).

Columns and labels:
C57BL/6J mice = test: Anastomotic wound healing (hydroxyproline content, bursting pressure), mouse; type: in vivo; details: 5 mg/kg i.v. 90 minutes before transection; POD 2, 5 and 10
Protocol: C57BL/6J mice were treated with 0 mg/kg (placebo) or 5 mg/kg CNI-1493 90 minutes before colonic transection followed by an anastomosis with 8-10 interrupted polypropylene 8.0 sutures. On postoperative days (POD) 2, 5 and 10 anastomotic tissue was investigated for disturbances of wound healing by measurement of hydroxyproline content and bursting pressure.
Hydroxyproline content was determined from an 1 cm perianastomotic region as described before (Woessner J. F., Jr. The determination of hydroxyproline in tissue and protein samples containing small proportions of this imino acid. Arch Biochem Biophys 1961; 93:440-447). Results were normalized as micrograms of hydroxyproline per gram tissue.
Anastomotic bursting pressure (ABP) was measured directly after sacrifice and sampling a 3 cm colonic segment including the anastomotic site. The anastomotic specimen was cleared from feces and ligated twice at the distal end using a 6-0 polyglactin (Vicryl™, Ethicon, Belgium) suture. An 18 G arterial catheter (Vygon, France) was inserted intraluminally within the specimen at the proximal end and two stay sutures were tied to prevent leakage. […] The intraluminal pressure (mmHg) was measured and recorded using a pressure transducer with an amplifier and recorded by the Biopac A/D systems (Biopac Systems, Goleta, USA). […]

[1] = system: nitric oxide (NO) production in ME; test: Nitric oxide release from rat ME cultures (Griess reaction) after IM; type: in vivo; details: rats
Protocol: Animals underwent IM after intravenous CNI-1493 (5 mg/kg) or oral CPSI-2364 (1 mg/kg or 0.1 mg/kg) administration 90 minutes before surgery. Control animals received CNI-1493 (5 mg/kg) intravenously or CPSI-2364 orally (1 mg/kg or 0.1 mg/kg), but were not operated.
Total ME from small intestine was isolated 24 h after operation as described above and then cut into small pieces and washed for 30 minutes in PBS containing a penicillin/streptomycin (200U/200 μg) mixture. Aliquots of ˜50 mg were incubated in 1 mL of DMEM at 37° C. and 5% CO2 for further 24 hours and tissue culture supernatants were frozen in liquid nitrogen. The muscle tissue was blotted dry, and the exact weight was measured. To quantify the generation of NO from intestinal smooth muscle preparations, nitrite production was measured by the Griess reaction as described previously (Kalff J C, Schraut W H, Billiar T R et al. Role of inducible nitric oxide synthase in postoperative intestinal smooth muscle dysfunction in rodents. Gastroenterology 2000; 118:316-327). In brief, supernatant from the tissue culture was mixed with an equal volume of Griess reagent (0.1% N-(1-napthyl)ethyl-enediamine dihydrochloride and 1% sulfanilamide in 6% phosphoric acid; 1:1) and incubated for 10 minutes. The absorbance at 550 nm was measured with a microplate reader and compared with standard dilutions of sodium nitrite. […]

Lewis rats = test: Intestinal injury (Park score) after syngeneic orthotopic small intestinal transplantation; type: in vivo; details: 1 mg/kg i.v. to donor and recipient
Protocol: (§1) Syngeneic orthotopic small intestinal transplantation was performed in Lewis rats as previously described (Schwarz N T, Nakao A, Nalesnik M A, Kalff J C, Murase N, Bauer A J. Protective effects of ex vivo graft radiation and tacrolimus on syngeneic transplanted rat small bowel motility. Surgery 2002; 131: 413-423). […] Then the graft vascular bed was perfused with chilled UW solution (University of Wisconcin) and the intestinal lumen was irrigated with 50 ml cold 0.9% NaCl solution containing […]. neomycin sulfate (Uro Nebacetin N, Nycomed, Germany). The graft was stored in cold UW solution during the preparation of the recipient. An end-to-side anastomosis between the graft aorta and the recipient infra-renal aorta, and between the graft vein and recipient vena cava, was performed. Approximately 80% of the recipient intestine was removed and enteric continuity was restored by proximal and distal end-to-end intestinal anastomoses. […]
Histological changes and intestinal injury were graded by determination of the Park score 3 and 18 hours after reperfusion. […] Probes were analyzed in a blinded way.
Syngeneic orthotopic small intestinal transplantation was performed as described above and histological changes and intestinal injury were graded by determination of the Park score 3 and 18 hours after reperfusion. […] Probes were analyzed in a blinded way.

[2] = system: apoptotic cells in graft muscularis; test: Apoptosis within smooth muscle layer of grafts (TUNEL); type: in vivo, Lewis rats; details: 1 mg/kg
Protocol: as §1
Apoptotic cells within the smooth muscle layer of the grafts were detected 3 and 18 h after reperfusion by detection of DNA double strand breaks with a commercially available TUNEL kit (Roche, Mannheim, Germany) according to the manufactures instructions.

Row | anastomotic bursting pressure vs placebo (C57BL/6J mice) | anastomotic hydroxyproline content vs placebo (C57BL/6J mice) | SMILES | NO production from ME vs placebo IM ([1]; 0.1 mg/kg bodyweight p.o.) | NO production from ME vs placebo IM ([1]; p.o. preoperative (FIG. 12)) | Park's score (Lewis rats; 3 hours after reperfusion) | Park's score (Lewis rats; 18 hours after reperfusion) | number of apoptotic bodies in muscularis ([2]; 3 h after reperfusion) | number of apoptotic bodies in muscularis ([2]; 18 h after reperfusion)
1 | did not differ at any time | did not differ at any time | C/C(=N\N=C(N)N)c1cc(NC(=O)CCCCCCCCC(=O)Nc2cc(/C(C)=N/N=C(N)N)cc(/C(C)=N/N=C(N)N)c2)cc(/C(C)=N/N=C(N)N)c1.Cl.Cl.Cl.Cl [CNI-1493] |  |  |  |  |  | 
2 |  |  | C/C(=N\N=C(N)N)c1cc(NC(=O)CCCCCCCCC(=O)Nc2cc(/C(C)=N/N=C(N)N)cc(/C(C)=N/N=C(N)N)c2)cc(/C(C)=N/N=C(N)N)c1.CS(=O)(=O)O.CS(=O)(=O)O.CS(=O)(=O)O.CS(=O)(=O)O [CPSI-2364] | led to the described results | significantly diminished | 1.83 | 1.5 | 21.0 | 7.2
